Laboratory results reported in US20180116993A1, “MODULATORS OF FARNESOID X RECEPTOR AND METHODS FOR THE USE THEREOF” (XIAMEN UNIVERSITY, priority 2015, published 2018).
Marks after values point to notes of the source that are not given here.

Tests used:
[1] = tested on: mice with APAP-induced liver injury; assay: Acetaminophen (APAP)-induced liver injury in mouse; format: in vivo; settings: for ALT (U/L) / Hepatic GSH (μM/g liver tissue): then APAP 500 mg/kg; for ALT (U/L): serum, vehicle 786 ± 111; for Liver morphology by H&E staining (FIG. 1): 10 mg/kg (Tschimganine 20 mg/kg) i.p. five days, then APAP, compared to severe liver injury in control group; for expression levels of GPX1 and UGT1α1 in liver: mRNA by RT-PCR; for expression levels of GPX1 and UGT1α1 in liver / activities of serum AST, ALT and LDH: vs vehicle control group, Table 5 (not given)
Excerpt: Methods: Acetaminophen (APAP)-induced liver injury in mouse is a commonly used model to study drugs protecting liver. Overdose of APAP causes liver injury by inducing the production of reactive oxygen species and reactive nitrogen species, and excessive consumption of reductive substances such as antioxidant glutathione (GSH), leading to the reduction of GSH in vivo, and the following upregulation of the activities of the aspartate aminotransferase (AST), the alanine aminotransferase (ALT) and the lactate dehydrogenase (LDH), which will result in liver inflammation and necrosis. In this example, the APAP-induced liver injury was used to detect the protection and repair functions of our compounds in liver injury.
One-year or 8-week age mice were maintained under environmentally controlled conditions with free access to standard chow diet and water. Animal experiments were conducted in the barrier facility of the Laboratory Animal Center, Xiamen University, approved by the Institutional Animal Use and Care Committee of Xiamen University, China.
Compounds were solved with DMSO and then prepared to work concentration with 40% HBC (2-hydroxypropyl-β-cyclodextrin) in which the final work concentrations of compounds are 5 mg/kg body weight, 10 mg/kg or 20 mg/kg in 100 μl injection volume and the concentration of DMSO is 10%. Compounds were intraperitoneal (i.p.) injected once daily for five days. For Feroline and Tschimganine, one-year age mice were used in the experiment. For other compounds, 8-week age mice were used. […] For Tschimganine, 20 mg/kg dose of compound was administered to mice. For other compounds, 5 mg/kg dose of compounds were administered to mice. Six hours after the fifth injection, 500 mg/kg body weight of APAP solved in PBS was i.p. injected to the mice. 24 hours later, mice were sacrificed. Part of each liver was fixed in 4% paraformaldehyde, and the liver histology characterization was analyzed by haematoxylin and eosin (H&E) staining with paraffin-embedded sections by standard procedures. Other liver tissues were collected for detecting the GSH levels, and the mRNA expression of genes involved in liver repairing, such as GPX1 and UGT1a1, by RT-PCR. The serums were collected to measure enzymes activities including AST, ALT and LDH. For the synthetic derivatives, ALT and GSH were selected as indicating markers for the function of these compounds.

[2] = tested on: db/db mice; assay: Serum/blood metabolic parameters in high-fat diet fed db/db mice; format: in vivo, mouse
Outline: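 db/db mice aged 8–10 weeks on high-fat diet received compounds i.p. once daily for 7, 10, 11 or 14 days, then were fasted 6 h and sacrificed. Serum glucose (glucose oxidase), insulin (ELISA), cholesterol, FFA and triglycerides measured by kits; some blood glucose by tail strips after the 6th injection and 16 h fast.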

[3] = tested on: inflammatory cytokines in tissues of db/db mice; assay: Inflammatory cytokine mRNA levels in tissues of high-fat diet fed db/db mice (RT-PCR); format: in vivo, mouse; settings: 5 mg/kg; for WAT, mRNA level (fold), IL-1β / WAT, mRNA level (fold), TNFα: white adipose tissue; for WAT, mRNA level (fold), IL-1β: vehicle 1.06 ± 0.2; for WAT, mRNA level (fold), TNFα: vehicle 1.15 ± 0.13; for mRNA level of iNOS (fold), Liver tissue: vehicle 1.06 ± 0.14; for mRNA level of iNOS (fold), Colon tissue: vehicle 1.12 ± 0.23
Excerpt: In this example, we detected the levels of various inflammatory cytokines including iNOS, IFNγ, TGFβ, TNFα, COX2, IL-1β, IL-6, SAA1, MIP-1α and CD36 in liver, kidney, white adipose tissue (WAT) in various mice models, including wild type mice treated with APAP in example 4, high-fat diet fed diabetic and obesity db/db and KK-Ay mice in example 5, high-fat diet fed wild-type mice in Example 5, as well as in primary hepatocytes with LPS induced inflammation, using RT-PCR.

[4] = tested on: collagen related genes in mice livers; assay: Liver mRNA levels of collagen related genes in mice of Example 5 (RT-PCR); format: in vivo, mouse; settings: 10 mg/kg; for Relative mRNA level of α-SMA: vehicle 1 ± 0.1; for Relative mRNA level of α1(I) collagen: vehicle 1.1 ± 0.2
Excerpt: NAFLD with excessive fat accumulation in liver will affect the blood and oxygen supplies to liver and the metabolism of liver organ, resulting in amounts of cell swelling, inflammatory infiltration and necrosis in liver. […] The levels of various collagen contents are higher in patients with liver cirrhosis. Masson's staining is a three-color staining protocol used in histology. It is widely used to study hepatic pathologies (cirrhosis). It's an authoritative and classic method to detect the existence and extend of accumulation of the collagen fiber. Sirius Red staining is also presented as a method for collagen determination. In this example, the Masson's staining and […] were performed to detect the collagen deposit in high fat diet fed db/db mice in Example 5. The Masson's staining kit (Nanjing Jiancheng Engineering Institute, China) was used for the staining of liver sections in Example 5. The Sirius red staining is performed as standard procedure. RT-PCR was used detect the expression of collagen and related genes such as α1(I) collagen, α2(I)collagen, α-SMA and MCP-1 in mice livers.

[5] = 5 mg/kg i.p. once daily for five days, 8-week age mice
[6] = 5 mg/kg i.p. once daily for five days, 8-week age mice, vehicle 9.1 ± 0.5
[7] = 10 mg/kg, treat for 10 days, vehicle 527 ± 63

CC1(C)C2CCC1(C)C(OC(=O)c1ccncc1)C2 (stereo not drawn) [XD-6, 1,7,7-trimethyl-bicyclo[2.2.1]-heptan-2-yl isonicotinate]
ALT (U/L) [1, 5]: 109 ± 26 ^c U/L

O=C(OC1CCCCCCCCCCC1)c1ccc(O)cc1 [XD-11, cyclododecyl 4-hydroxybenzoate]
Hepatic GSH (μM/g liver tissue) [1, 6]: 12.6 ± 0.4 ^b μM/g liver tissue

CC1(C)C2CCC1(C)C(OC(=O)c1ccc(=O)[nH]c1)C2 (stereo not drawn) [XD-8, 1,7,7-trimethyl-bicyclo[2.2.1]-heptan-2-yl 6-oxo-1,6-dihydropyridine-3-carboxylate]
ALT (U/L) [1, 5]: 115 ± 38 ^c U/L

COc1cc(C(=O)OC2CCC3CCCCC3C2)ccc1O (stereo not drawn) [XD-30, decahydro-naphthalen-2-yl 4-hydroxy-3-methoxybenzoate]
ALT (U/L) [1, 5]: 107 ± 41 ^b U/L | Serum Glucose (mg/dl) [2, 7]: 400 ± 51^a mg/dl

O=C(OC1CCC2CCCCC2C1)c1ccc(O)cc1 (stereo not drawn) [XD-28, decahydro-naphthalen-2-yl 4-hydroxy-benzoate]
ALT (U/L) [1, 5]: 114 ± 25 ^c U/L

CC1(C)C2CCC1(C)C(OC(=O)c1ccc(=O)oc1)C2 (stereo not drawn) [XD-9, 1,7,7-trimethyl-bicyclo[2.2.1]-heptan-2-yl 6-oxo-6H-pyran-3-carboxylate]
Serum Glucose (mg/dl) [2, 7]: 399 ± 41^a mg/dl

CC1(C)C2CCC1(C)C(OC(=O)c1ccc(N)cc1)C2 (stereo not drawn) [XD-5, 1,7,7-trimethyl-bicyclo[2.2.1]-heptan-2-yl 4-aminobenzoate]
ALT (U/L) [1, 5]: 197 ± 57 ^b U/L | Hepatic GSH (μM/g liver tissue) [1, 6]: 12.8 ± 0.3 ^b μM/g liver tissue | WAT, mRNA level (fold), IL-1β [3]: 0.33 ± 0.2^a fold | WAT, mRNA level (fold), TNFα [3]: 0.56 ± 0.17^a fold

COc1cc(C(=O)O[C@H]2C[C@H]3CC[C@]2(C)C3(C)C)ccc1O [Tschimganine]
Relative mRNA level of α-SMA [4]: 0.56 ± 0.12^a | Relative mRNA level of α1(I) collagen [4]: 0.6 ± 0.12^a | Relative mRNA level of MCP-1 ([4]; vehicle 1.2 ± 0.2): 0.62 ± 0.13^a | Liver morphology by H&E staining (FIG. 1) [1]: almost normal liver morphology | Hepatic GSH (μM/g liver tissue) ([1]; 20 mg/kg i.p. once daily for five days, one-year age mice, vehicle 8.0 ± 2.8): 14.9 ± 0.6^b μM/g liver tissue | expression levels of GPX1 and UGT1α1 in liver [1]: significantly upregulated | activities of serum AST, ALT and LDH [1]: dramatically lower | Serum Insulin (ng/ml) ([2]; 10 mg/kg for 7 days, vehicle 12 ± 3): 4.7 ± 0.4^b ng/ml | Serum Glucose (mg/dl) ([2]; 10 mg/kg for 7 days, vehicle 521 ± 54): 342 ± 36^a mg/dl

CC1(C)C2CCC1(C)C(OC(=O)C1CCC(O)CC1)C2 (stereo not drawn) [XD-20, 1,7,7-trimethyl-bicyclo[2.2.1]-heptan-2-yl 4-hydroxy-cyclohexane-carboxylate]
mRNA level of iNOS (fold), Liver tissue [3]: 0.51 ± 0.2^a fold | mRNA level of iNOS (fold), Colon tissue [3]: 0.5 ± 0.18^a fold | Serum Glucose (mg/dl) [2, 7]: 396 ± 55^a mg/dl

Nc1ccc(C(=O)OC2CCC3CCCCC3C2)cc1 (stereo not drawn) [XD-23, decahydro-naphthalen-2-yl 4-aminobenzoate]
ALT (U/L) [1, 5]: 130 ± 62 ^a U/L | mRNA level of iNOS (fold), Liver tissue [3]: 0.2 ± 0.1^a fold | mRNA level of iNOS (fold), Colon tissue [3]: 0.55 ± 0.29^a fold | WAT, mRNA level (fold), IL-1β [3]: 0.64 ± 0.13^a fold | WAT, mRNA level (fold), TNFα [3]: 0.6 ± 0.21^a fold

CC1(C)C2CCC1(C)C(OC(=O)c1ccc(F)c(Br)c1)C2 (stereo not drawn) [XD-13, 1,7,7-trimethyl-bicyclo[2.2.1]-heptan-2-yl 3-bromo-4-fluoro-benzoate]
Hepatic GSH (μM/g liver tissue) [1, 6]: 13.7 ± 0.9 ^a μM/g liver tissue

CC1(C)C2CCC1(C)C(OC(=O)c1ccc(F)cc1)C2 (stereo not drawn) [XD-0, 1,7,7-trimethyl-bicyclo[2.2.1]-heptan-2-yl 4-fluorobenzoate]
Hepatic GSH (μM/g liver tissue) [1, 6]: 15.0 ± 0.5 ^b μM/g liver tissue | Serum Glucose (mg/dl) [2, 7]: 223 ± 33^b mg/dl

Cc1cc(C(=O)OC2CCC3CCCCC3C2)ccc1O (stereo not drawn) [XD-29, decahydro-naphthalen-2-yl 4-hydroxy-3-methylbenzoate]
ALT (U/L) [1, 5]: 118 ± 31 ^c U/L

COc1cc(C(=O)OC2CCC3CCCCC3C2)ccc1[N+](=O)[O-] (stereo not drawn) [XD-36, decahydro-naphthalen-2-yl 3-methoxy-4-nitrobenzoate]
Hepatic GSH (μM/g liver tissue) [1, 6]: 14.8 ± 0.3 ^b μM/g liver tissue | Serum Glucose (mg/dl) [2, 7]: 366 ± 65^a mg/dl

O=C(OC1CCCCCCC1)c1ccc(O)cc1 [XD-10, cyclooctyl 4-hydroxybenzoate]
ALT (U/L) [1, 5]: 114 ± 31 ^c U/L | mRNA level of iNOS (fold), Liver tissue [3]: 0.52 ± 0.3^a fold | mRNA level of iNOS (fold), Colon tissue [3]: 0.49 ± 0.21^a fold

C/C1=C\CCC(C)(O)/C=C/C(C(C)C)C(OC(=O)c2ccc(O)cc2)C1 (stereo not drawn) [Feroline]
Relative mRNA level of α-SMA [4]: 0.73 ± 0.06^a | Relative mRNA level of α2(I) collagen ([4]; vehicle 1.1 ± 0.1): 0.6 ± 0.06^a | Relative mRNA level of α1(I) collagen [4]: 0.37 ± 0.1^a | Liver morphology by H&E staining (FIG. 1) [1]: almost normal liver morphology | Hepatic GSH (μM/g liver tissue) ([1]; 10 mg/kg i.p. once daily for five days, one-year age mice, vehicle 8.0 ± 2.8): 14.2 ± 1.6^b μM/g liver tissue | expression levels of GPX1 and UGT1α1 in liver [1]: significantly upregulated | activities of serum AST, ALT and LDH [1]: dramatically lower

Nc1ccc(C(=O)OC2CCCCCC2)cc1 [XD-12, cycloheptyl 4-aminobenzoate]
Hepatic GSH (μM/g liver tissue) [1, 6]: 12.5 ± 0.7 ^a μM/g liver tissue

COc1cc(C(=O)OC2C/C(C)=C/CC/C(C)=C/[C@@H](O)[C@H]2C(C)C)ccc1O (stereo partly drawn) [Tschimganidine]
Liver morphology by H&E staining (FIG. 1) [1]: almost normal liver morphology | expression levels of GPX1 and UGT1α1 in liver [1]: significantly upregulated | activities of serum AST, ALT and LDH [1]: dramatically lower

Cc1cc(C(=O)OC2CCC3CCCCC3C2)ccc1[N+](=O)[O-] (stereo not drawn) [XD-35, decahydro-naphthalen-2-yl 3-methyl-4-nitro-benzoate]
Hepatic GSH (μM/g liver tissue) [1, 6]: 12.6 ± 1.6 ^a μM/g liver tissue | Serum Glucose (mg/dl) [2, 7]: 337 ± 67^a mg/dl

COc1cc(C(=O)OC2CCCCCCC2)ccc1O [XD-18, cyclooctyl 4-hydroxy-3-methoxybenzoate]
ALT (U/L) [1, 5]: 135 ± 48 ^a U/L
